According to the supplement of paper PMC10307832:

Experiments:
Assay in all cases: relative viability (nuclei count vs DMSO), 5 days (fraction); higher = more cells survive
Palbociclib + Pemetrexed = compound: CC(=O)c1c(C)c2cnc(Nc3ccc(N4CCNCC4)cn3)nc2n(C2CCCC2)c1=O [Palbociclib] + Nc1nc2[nH]cc(CCc3ccc(C(=O)N[C@@H](CCC(=O)O)C(=O)O)cc3)c2c(=O)[nH]1 [Pemetrexed] (partner 0.2 µM)
Summary of the method: (§1)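 Relative viability was taken as the ratio of nuclei in treated wells to nuclei in vehicle wells. Lung cancer cell lines in 1536-well plates received compounds by pin tool one day after seeding, either one drug alone or a fixed anchor-drug dose plus five library-drug doses (not always all listed) in √10 steps. Nuclei were counted on 4× images after 5 days of treatment, and values are medians of duplicate plates.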

Palbociclib + Linsitinib = compound: CC(=O)c1c(C)c2cnc(Nc3ccc(N4CCNCC4)cn3)nc2n(C2CCCC2)c1=O [Palbociclib] + C[C@]1(O)C[C@@H](c2nc(-c3ccc4ccc(-c5ccccc5)nc4c3)c3c(N)nccn32)C1 [Linsitinib] (partner 1 µM)
Summary of the method: as §1

Palbociclib + Olaparib = compound: CC(=O)c1c(C)c2cnc(Nc3ccc(N4CCNCC4)cn3)nc2n(C2CCCC2)c1=O [Palbociclib] + O=C(c1cc(Cc2n[nH]c(=O)c3ccccc23)ccc1F)N1CCN(C(=O)C2CC2)CC1 [Olaparib] (partner 8 µM)
Summary of the method: as §1

Palbociclib + OSI-027 = compound: CC(=O)c1c(C)c2cnc(Nc3ccc(N4CCNCC4)cn3)nc2n(C2CCCC2)c1=O [Palbociclib] + COc1cccc2cc(-c3nc([C@H]4CC[C@H](C(=O)O)CC4)n4ncnc(N)c34)[nH]c12 [OSI-027] (partner 0.5 µM)
Summary of the method: as §1

Cell Line	relative viability (Palbociclib + Pemetrexed; first compound 0.01 µM)	relative viability (Palbociclib + Pemetrexed; first compound 0.03162 µM)	relative viability (Palbociclib + Pemetrexed; first compound 0.1 µM)	relative viability (Palbociclib + Pemetrexed; first compound 0.3162 µM)	relative viability (Palbociclib + Pemetrexed; first compound 1 µM)	relative viability (Palbociclib + Linsitinib; first compound 0.01 µM)	relative viability (Palbociclib + Linsitinib; first compound 0.03162 µM)	relative viability (Palbociclib + Linsitinib; first compound 0.1 µM)	relative viability (Palbociclib + Linsitinib; first compound 0.3162 µM)	relative viability (Palbociclib + Linsitinib; first compound 1 µM)	relative viability (Palbociclib + Olaparib; first compound 0.01 µM)	relative viability (Palbociclib + Olaparib; first compound 0.03162 µM)	relative viability (Palbociclib + Olaparib; first compound 0.1 µM)	relative viability (Palbociclib + Olaparib; first compound 0.3162 µM)	relative viability (Palbociclib + Olaparib; first compound 1 µM)	relative viability (Palbociclib + OSI-027; first compound 0.01 µM)	relative viability (Palbociclib + OSI-027; first compound 0.1 µM)	relative viability (Palbociclib + OSI-027; first compound 0.3162 µM)	relative viability (Palbociclib + OSI-027; first compound 1 µM)	relative viability (Palbociclib + OSI-027; first compound 0.03162 µM)
NCI-H2347	0.39	0.407	0.368	0.413	0.386	1.04	0.868	0.597	0.723	0.595	0.606	0.549	0.564	0.51	0.49	0.467	0.402	0.379	0.308	–
NCI-H2405	1.06	1.14	0.941	0.799	0.523	0.992	–	0.49	0.808	0.54	0.842	0.841	0.765	0.682	0.527	0.586	0.492	0.483	0.396	0.487
NCI-H3122	0.205	0.184	0.192	0.186	0.188	0.925	1.02	0.943	0.809	0.63	0.596	0.576	0.635	0.584	0.528	0.82	0.346	0.172	0.169	0.602
PC-3 [JPC-3]	1.14	1.06	0.952	0.878	0.428	0.981	0.888	0.878	0.787	0.613	1.16	0.903	0.816	0.872	0.526	0.728	0.561	0.483	0.349	0.599
PC-14	0.143	0.142	0.137	0.148	0.158	1.04	0.847	0.869	0.802	0.689	0.31	0.296	0.311	0.214	0.176	0.964	0.572	0.603	0.362	0.515
RERF-LC-KJ	0.437	0.45	0.432	0.486	0.469	0.954	0.887	0.919	1.04	0.958	0.896	0.83	0.919	0.942	0.821	0.541	0.508	0.598	0.64	0.583
SK-LU-1	1.02	0.96	0.836	0.753	0.556	0.975	1.06	0.777	0.771	0.627	0.51	0.425	0.428	0.371	0.263	0.375	0.231	0.241	0.202	0.316
SK-MES-1	0.857	0.802	0.665	0.596	0.363	1.01	1	0.791	0.772	0.609	0.695	0.57	0.446	0.343	0.205	0.528	0.345	0.314	0.186	0.364
SW 1573	0.773	0.729	0.646	0.681	0.461	0.69	0.733	0.639	0.669	0.5	0.463	0.452	0.454	0.359	0.291	0.662	0.389	0.357	0.235	0.468
UMC-11	0.795	0.726	0.594	0.473	0.308	1.02	0.894	0.888	0.536	0.326	0.332	0.375	0.341	0.298	0.136	0.462	0.302	0.308	0.286	0.417
